Results reported in PMC4770306, “Structure-Based Identification of Inhibitory Fragments Targeting the p300/CBP-Associated Factor Bromodomain” (Journal of Medicinal Chemistry, 2016).

Key:
Assay type in all cases: binding
[1] = molecular target: T1, PCAF bromodomain (Homo sapiens, UniProt Q92831); assay: SPR (Biacore) of TINS fragment hits on immobilized PCAF; details: for Kd: SPR, 20 °C, six concentrations, aqueous buffer without DMSO; for LE: from SPR KD and heavy atom count
T1 construct: made in house
T1 sequence (Q92831 723-827 limits assumed): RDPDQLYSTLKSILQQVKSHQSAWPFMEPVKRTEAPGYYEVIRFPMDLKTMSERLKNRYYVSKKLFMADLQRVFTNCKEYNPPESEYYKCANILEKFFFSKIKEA
Protocol: Recombinant PCAF was biotinylated on the N-terminal AVI tag in vivo. Purified, biotinylated PCAF was captured onto a NeutraAvidin-coated CM5 sensor chip surface in 20 mM sodium phosphate pH7.5, 150 mM NaCl, 2 mM DTT, and 0.05% P20 Tween. This buffer was subsequently used for all studies. The immobilization level was 10150 RU. All SPR experiments were performed using a Biacore T200 instrument at 20 °C. Fragment hits from TINS were directly solubilized in the running buffer. Each fragment was titrated at six different concentrations for KD determination. An acetyl-Lys 16 peptide derived from H4 was used to monitor the ligand binding capacity of the immobilized PCAF bromodomain at regular intervals.

[2] = molecular target: T2, PCAF bromodomain (Homo sapiens, UniProt Q92831); assay: Thermal stability shift assay (DSF), PCAF bromodomain; details: compound 1 mM, protein 2 μM, average of triplicates
T2 construct: The PCAF bromodomain (aa 715–831) containing an N-terminal His6-tag was recombinantly expressed in Escherichia coli Rosetta; His6 (N, cleaved yes); made in house; host or cells: Escherichia coli Rosetta
T2 sequence (Q92831 715-831): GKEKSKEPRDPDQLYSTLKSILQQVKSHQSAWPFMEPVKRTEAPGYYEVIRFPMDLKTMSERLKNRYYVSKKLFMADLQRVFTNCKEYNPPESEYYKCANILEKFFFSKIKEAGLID

[3] = molecular target: CECR2A (Homo sapiens, UniProt Q9BXF3); assay: Alphascreen assay CECR2A
CECR2A, sequence (Q9BXF3 whole entry): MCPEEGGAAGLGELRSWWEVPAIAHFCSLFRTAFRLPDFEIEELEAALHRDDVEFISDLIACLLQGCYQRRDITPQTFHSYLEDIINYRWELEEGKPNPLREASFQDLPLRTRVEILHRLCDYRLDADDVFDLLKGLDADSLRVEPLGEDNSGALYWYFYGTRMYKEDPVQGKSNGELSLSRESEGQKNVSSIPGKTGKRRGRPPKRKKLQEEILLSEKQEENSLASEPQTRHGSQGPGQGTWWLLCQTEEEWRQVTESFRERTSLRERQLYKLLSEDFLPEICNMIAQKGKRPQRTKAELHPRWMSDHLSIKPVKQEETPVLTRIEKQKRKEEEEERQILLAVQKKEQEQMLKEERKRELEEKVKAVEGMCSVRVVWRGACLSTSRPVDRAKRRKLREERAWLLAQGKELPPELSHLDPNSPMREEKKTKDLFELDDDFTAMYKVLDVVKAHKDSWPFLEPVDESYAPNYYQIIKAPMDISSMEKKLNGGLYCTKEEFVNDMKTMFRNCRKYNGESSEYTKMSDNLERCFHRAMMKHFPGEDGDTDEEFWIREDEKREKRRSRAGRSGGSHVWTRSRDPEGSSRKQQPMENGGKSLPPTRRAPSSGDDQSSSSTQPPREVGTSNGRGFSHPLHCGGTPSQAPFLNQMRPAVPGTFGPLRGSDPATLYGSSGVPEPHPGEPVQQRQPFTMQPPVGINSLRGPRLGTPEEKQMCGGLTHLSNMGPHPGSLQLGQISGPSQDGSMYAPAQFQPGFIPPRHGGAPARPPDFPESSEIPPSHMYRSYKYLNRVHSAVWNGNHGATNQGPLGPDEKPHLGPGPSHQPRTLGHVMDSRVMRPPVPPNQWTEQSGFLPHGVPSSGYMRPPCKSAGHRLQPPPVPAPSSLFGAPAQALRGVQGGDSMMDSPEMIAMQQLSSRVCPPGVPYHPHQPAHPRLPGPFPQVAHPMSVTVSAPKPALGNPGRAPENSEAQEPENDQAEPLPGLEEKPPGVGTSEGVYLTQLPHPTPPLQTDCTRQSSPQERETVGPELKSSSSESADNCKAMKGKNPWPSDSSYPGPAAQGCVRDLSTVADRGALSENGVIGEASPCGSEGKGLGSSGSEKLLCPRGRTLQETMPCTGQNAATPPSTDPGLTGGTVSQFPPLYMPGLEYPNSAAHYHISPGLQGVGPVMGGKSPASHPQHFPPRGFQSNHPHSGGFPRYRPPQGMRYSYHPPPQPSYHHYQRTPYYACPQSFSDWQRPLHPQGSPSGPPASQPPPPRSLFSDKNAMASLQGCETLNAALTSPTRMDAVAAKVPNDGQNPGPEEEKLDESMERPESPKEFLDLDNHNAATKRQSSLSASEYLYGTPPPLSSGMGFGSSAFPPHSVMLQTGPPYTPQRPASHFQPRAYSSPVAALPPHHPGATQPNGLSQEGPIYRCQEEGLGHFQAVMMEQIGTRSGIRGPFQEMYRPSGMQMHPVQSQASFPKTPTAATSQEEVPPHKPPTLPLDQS

[4] = molecular target: T3, BRD9A (Homo sapiens, UniProt Q9H8M2); assay: Alphascreen assay BRD9A; details: for % Inhibition at 25 µM / inhibition at 25 µM: BRD9A; for IC50: read-out: BRD9 IC50
T3 sequence (Q9H8M2 1-597): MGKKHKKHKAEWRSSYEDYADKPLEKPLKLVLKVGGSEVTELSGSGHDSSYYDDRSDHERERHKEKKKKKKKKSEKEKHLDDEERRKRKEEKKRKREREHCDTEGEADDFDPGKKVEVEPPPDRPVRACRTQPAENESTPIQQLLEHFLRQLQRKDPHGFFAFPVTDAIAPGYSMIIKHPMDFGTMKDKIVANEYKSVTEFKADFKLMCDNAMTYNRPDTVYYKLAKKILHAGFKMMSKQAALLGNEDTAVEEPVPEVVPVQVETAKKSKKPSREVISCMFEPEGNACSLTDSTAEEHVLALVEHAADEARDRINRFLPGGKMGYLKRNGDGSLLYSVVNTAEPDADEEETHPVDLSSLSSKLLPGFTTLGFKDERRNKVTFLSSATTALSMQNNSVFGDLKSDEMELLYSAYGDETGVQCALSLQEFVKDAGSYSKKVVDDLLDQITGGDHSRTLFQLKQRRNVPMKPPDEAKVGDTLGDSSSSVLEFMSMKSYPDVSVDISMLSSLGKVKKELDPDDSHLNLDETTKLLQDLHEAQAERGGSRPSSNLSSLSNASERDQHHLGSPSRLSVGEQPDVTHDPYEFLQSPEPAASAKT

[5] = molecular target: BAZ2BA (Homo sapiens, UniProt Q9UIF8); assay: Alphascreen assay BAZ2BA
BAZ2BA, sequence (Q9UIF8 whole entry): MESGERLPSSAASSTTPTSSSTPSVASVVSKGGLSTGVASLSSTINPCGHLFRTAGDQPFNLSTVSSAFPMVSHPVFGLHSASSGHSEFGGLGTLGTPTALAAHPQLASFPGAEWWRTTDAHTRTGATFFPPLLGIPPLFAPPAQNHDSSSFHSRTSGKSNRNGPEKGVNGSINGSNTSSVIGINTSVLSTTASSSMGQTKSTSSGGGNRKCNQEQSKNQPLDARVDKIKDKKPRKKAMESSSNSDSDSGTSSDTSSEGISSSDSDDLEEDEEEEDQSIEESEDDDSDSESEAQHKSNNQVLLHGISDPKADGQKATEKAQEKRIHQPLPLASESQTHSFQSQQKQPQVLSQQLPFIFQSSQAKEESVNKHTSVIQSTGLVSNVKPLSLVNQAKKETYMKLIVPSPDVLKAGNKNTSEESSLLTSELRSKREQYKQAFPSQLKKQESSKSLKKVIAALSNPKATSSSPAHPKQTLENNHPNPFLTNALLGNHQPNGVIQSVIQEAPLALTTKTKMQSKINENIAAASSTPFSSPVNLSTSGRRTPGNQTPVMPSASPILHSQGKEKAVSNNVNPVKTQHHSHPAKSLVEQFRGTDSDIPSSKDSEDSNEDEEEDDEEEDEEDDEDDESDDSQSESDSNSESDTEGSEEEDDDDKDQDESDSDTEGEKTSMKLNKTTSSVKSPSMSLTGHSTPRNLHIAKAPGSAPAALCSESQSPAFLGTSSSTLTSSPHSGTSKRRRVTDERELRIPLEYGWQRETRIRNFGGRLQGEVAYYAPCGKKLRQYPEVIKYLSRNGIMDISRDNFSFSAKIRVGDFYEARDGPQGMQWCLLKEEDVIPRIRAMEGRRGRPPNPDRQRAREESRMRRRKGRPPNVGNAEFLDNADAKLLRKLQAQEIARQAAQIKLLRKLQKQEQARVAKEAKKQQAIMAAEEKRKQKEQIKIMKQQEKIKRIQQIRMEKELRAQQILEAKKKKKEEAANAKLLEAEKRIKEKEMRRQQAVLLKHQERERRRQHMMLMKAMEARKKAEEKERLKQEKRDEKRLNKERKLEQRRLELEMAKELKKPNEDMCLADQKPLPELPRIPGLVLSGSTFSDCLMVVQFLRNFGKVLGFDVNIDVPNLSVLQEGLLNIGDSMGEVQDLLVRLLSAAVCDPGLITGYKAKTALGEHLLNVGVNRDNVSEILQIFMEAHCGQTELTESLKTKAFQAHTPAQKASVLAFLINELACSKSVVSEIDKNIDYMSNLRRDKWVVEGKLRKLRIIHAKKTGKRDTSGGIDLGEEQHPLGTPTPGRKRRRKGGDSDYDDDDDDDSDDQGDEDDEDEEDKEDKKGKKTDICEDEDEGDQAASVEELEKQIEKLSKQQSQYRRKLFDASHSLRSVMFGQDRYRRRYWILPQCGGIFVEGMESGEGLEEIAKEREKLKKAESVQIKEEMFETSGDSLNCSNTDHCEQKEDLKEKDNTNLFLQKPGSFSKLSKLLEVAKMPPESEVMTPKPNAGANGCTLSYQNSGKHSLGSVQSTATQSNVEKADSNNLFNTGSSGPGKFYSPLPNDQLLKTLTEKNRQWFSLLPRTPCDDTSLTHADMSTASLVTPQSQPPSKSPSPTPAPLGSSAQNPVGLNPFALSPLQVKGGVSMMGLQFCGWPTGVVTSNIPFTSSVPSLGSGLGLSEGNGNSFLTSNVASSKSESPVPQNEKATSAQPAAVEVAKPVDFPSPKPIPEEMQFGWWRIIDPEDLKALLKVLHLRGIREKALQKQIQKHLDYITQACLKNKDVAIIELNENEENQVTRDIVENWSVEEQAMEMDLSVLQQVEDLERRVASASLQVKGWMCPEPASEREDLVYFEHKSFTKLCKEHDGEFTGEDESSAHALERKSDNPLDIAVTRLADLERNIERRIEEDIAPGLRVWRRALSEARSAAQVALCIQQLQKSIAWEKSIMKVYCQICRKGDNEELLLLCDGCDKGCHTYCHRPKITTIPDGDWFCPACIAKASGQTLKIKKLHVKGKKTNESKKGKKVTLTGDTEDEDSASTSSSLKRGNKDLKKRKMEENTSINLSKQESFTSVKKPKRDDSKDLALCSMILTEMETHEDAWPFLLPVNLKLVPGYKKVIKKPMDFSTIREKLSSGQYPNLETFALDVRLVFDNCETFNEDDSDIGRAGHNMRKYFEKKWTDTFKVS

[6] = molecular target: T4, BAZ1BA (Homo sapiens, UniProt Q9UIG0); assay: Alphascreen assay BAZ1BA
T4 sequence (Q9UIG0 1-1483): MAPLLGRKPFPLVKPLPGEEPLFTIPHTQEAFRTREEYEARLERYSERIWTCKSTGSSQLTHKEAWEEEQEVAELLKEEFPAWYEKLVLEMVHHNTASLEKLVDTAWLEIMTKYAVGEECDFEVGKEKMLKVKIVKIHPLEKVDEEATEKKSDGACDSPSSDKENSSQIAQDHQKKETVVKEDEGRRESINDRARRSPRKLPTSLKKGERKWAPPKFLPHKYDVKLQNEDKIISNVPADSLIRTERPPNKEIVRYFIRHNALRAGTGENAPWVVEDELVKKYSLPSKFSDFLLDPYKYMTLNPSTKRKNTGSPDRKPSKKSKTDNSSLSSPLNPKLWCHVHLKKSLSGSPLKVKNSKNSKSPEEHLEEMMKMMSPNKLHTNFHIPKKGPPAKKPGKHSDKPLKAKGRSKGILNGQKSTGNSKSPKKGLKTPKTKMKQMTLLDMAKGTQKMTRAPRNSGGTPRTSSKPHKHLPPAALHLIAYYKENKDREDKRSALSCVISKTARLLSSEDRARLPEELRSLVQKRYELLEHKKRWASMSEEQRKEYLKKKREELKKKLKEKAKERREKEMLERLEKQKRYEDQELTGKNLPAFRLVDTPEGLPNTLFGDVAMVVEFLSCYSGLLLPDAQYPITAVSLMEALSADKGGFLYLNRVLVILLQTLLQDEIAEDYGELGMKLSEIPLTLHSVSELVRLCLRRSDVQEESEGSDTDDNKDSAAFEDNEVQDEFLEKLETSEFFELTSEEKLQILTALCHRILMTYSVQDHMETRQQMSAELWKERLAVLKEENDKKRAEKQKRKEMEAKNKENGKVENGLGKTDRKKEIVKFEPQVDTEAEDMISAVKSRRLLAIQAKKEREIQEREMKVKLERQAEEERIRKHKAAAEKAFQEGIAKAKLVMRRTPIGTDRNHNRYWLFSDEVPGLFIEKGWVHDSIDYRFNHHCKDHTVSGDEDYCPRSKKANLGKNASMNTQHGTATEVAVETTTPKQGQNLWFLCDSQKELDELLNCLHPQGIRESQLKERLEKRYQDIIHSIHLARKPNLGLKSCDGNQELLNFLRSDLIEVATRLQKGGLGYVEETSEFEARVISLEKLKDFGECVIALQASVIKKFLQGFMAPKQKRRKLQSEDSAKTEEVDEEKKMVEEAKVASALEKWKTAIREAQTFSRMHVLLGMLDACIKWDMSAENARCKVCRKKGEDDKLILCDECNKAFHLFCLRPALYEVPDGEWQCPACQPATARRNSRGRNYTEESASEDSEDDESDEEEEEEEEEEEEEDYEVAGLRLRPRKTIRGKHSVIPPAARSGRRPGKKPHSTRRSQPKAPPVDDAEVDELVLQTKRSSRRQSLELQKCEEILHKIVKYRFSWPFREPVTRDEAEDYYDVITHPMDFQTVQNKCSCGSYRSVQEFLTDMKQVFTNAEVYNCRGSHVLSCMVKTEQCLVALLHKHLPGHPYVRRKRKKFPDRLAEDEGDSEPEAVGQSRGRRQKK

[7] = molecular target: T5, BRPF3A (Homo sapiens, UniProt Q9ULD4); assay: Alphascreen assay BRPF3A
T5 sequence (Q9ULD4 1-1205): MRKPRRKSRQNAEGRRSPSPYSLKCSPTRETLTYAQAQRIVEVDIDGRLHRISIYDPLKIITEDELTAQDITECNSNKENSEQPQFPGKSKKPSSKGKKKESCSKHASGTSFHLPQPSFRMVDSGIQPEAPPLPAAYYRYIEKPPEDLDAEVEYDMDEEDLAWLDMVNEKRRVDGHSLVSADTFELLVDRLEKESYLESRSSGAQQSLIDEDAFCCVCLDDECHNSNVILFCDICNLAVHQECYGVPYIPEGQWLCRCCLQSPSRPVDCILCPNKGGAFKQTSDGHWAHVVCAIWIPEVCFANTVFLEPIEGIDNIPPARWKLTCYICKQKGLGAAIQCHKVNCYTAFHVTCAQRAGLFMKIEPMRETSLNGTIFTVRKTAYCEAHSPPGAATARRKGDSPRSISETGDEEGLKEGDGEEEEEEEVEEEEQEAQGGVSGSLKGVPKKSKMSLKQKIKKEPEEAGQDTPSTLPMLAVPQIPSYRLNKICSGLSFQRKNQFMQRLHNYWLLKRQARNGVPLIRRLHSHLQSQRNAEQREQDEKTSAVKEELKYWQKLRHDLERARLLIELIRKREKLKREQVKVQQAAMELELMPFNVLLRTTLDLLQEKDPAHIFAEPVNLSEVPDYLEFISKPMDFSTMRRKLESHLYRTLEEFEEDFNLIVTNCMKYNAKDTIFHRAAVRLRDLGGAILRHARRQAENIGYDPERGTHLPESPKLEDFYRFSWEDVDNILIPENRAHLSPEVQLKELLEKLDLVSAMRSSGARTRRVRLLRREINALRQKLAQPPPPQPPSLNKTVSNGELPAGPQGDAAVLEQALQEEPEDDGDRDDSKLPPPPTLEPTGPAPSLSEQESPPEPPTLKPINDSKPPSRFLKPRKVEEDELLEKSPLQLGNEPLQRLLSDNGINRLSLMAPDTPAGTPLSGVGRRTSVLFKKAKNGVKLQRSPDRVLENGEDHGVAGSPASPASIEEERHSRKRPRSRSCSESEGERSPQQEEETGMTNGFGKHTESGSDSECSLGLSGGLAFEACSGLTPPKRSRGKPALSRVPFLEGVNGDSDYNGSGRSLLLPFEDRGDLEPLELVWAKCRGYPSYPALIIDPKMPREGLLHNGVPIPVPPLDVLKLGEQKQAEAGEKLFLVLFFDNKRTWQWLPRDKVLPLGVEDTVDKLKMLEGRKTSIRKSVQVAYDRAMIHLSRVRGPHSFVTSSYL

[8] = molecular target: T6, ATAD2A (Homo sapiens, UniProt Q6PL18); assay: Alphascreen assay ATAD2A
T6 sequence (Q6PL18 1-1390): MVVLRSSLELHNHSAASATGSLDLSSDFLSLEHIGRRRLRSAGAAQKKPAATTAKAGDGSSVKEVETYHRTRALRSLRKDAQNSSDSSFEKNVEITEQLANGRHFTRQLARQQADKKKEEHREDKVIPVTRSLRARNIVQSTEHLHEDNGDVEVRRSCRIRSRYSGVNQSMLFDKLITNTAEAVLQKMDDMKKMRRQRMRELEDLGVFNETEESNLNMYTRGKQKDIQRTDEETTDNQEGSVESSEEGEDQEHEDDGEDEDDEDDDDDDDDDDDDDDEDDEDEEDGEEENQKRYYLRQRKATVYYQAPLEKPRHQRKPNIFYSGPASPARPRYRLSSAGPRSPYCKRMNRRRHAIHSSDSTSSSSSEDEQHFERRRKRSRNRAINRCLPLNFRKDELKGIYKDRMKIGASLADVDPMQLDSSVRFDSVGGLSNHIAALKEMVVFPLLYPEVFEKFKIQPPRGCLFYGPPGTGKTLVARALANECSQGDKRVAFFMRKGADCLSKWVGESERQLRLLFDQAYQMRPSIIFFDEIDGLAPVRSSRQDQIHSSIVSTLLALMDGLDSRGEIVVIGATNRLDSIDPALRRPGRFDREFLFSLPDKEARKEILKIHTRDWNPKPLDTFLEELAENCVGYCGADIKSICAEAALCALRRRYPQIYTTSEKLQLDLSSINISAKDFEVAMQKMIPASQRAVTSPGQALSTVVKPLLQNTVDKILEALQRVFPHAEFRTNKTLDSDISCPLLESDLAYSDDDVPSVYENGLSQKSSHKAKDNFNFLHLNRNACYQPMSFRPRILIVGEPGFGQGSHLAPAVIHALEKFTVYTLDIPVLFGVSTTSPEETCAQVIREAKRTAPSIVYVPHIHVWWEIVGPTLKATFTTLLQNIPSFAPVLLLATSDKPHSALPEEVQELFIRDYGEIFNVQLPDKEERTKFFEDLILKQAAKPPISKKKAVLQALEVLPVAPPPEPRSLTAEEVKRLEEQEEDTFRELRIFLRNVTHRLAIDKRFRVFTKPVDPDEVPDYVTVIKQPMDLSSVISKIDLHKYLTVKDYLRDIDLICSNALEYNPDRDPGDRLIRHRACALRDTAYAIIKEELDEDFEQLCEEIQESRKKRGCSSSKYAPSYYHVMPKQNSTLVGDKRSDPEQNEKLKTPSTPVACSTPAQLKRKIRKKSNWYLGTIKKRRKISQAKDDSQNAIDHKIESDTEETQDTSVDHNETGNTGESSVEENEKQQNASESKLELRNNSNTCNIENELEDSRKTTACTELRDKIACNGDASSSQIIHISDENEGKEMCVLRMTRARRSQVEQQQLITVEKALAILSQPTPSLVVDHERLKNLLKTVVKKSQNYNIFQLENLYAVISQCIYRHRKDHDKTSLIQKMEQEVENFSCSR

[9] = molecular target: T2, PCAF bromodomain; assay: Isothermal titration calorimetry (ITC) with PCAF; details: from ITC Kd

Row | Kd [1] [µM] | LE [1] | inhibition at 25 µM [3] [%] | % Inhibition at 25 µM [4] | inhibition at 25 µM [4] [%] | IC50 [4] [µM] | inhibition at 25 µM [5] [%] | inhibition at 25 µM [6] [%] | inhibition at 25 µM [7] [%] | inhibition at 25 µM [8] [%] | other results | Structure (SMILES)
1 | 2680 | 0.23 |  |  |  |  |  |  |  |  |  | Cc1c(N)c(=O)n(-c2ccccc2)n1C [compound 9]
2 | 6910 | 0.24 |  |  |  |  |  |  |  |  |  | NC1CCN(C(=O)C2CC2)CC1 [compound 10]
3 | 488 | 0.32 |  |  |  |  |  |  |  |  |  | Cc1nn(CCO)c2c1C(=O)CCC2 [compound 11]
4 |  |  | 38.7 | strong inhibition | 82.8 | 12.5 | -2.6 | 0.7 | 46.8 | 2.4 | ΔTm (°C) at 1 mM (± SEM) [2]: 2.6–2.9 °C | CC(=O)Nc1ccc2c(C)cc(=O)n(C)c2c1 [compound 12, N-(1,4-dimethyl-2-oxo-1,2-dihydroquinolin-7-yl)acetamide]
5 |  |  | 3.9 | strong inhibition | 84.1 | 5.7 | 5.3 | -0.2 | 28.7 | 1.4 |  | Cc1cc(=O)n(C)c2cc(NS(C)(=O)=O)ccc12 [compound 13, N-(1,4-dimethyl-2-oxo-1,2-dihydroquinolin-7-yl)methanesulfonam]
6 |  |  |  |  |  |  |  |  |  |  | ligand efficiency (LE) [9]: 0.24 | CNC(=O)c1cc(OCC(=O)Nc2ccccc2)ccc1OC1CCOCC1 [compound 14, N-methyl-5-(2-oxo-2-(phenylamino)ethoxy)-2-((tetrahydro-2H-pyran-4-yl)oxy)benzamide]
